{
  "source": "patent US20240408098A1",
  "about": "“COMBINATIONS OF KRAS G12D INHIBITORS WITH PI3Ka INHIBITORS AND RELATED METHODS OF TREATMENT” (MIRATI THERAPEUTICS, INC., priority 2021, published 2024)",
  "format_in_all_cases": "in vivo",
  "key": {"[1]": {"tested_on": "AsPC-1 pancreatic cancer cell line", "experiment": "AsPC-1 xenograft in nude/nude mice, average tumor volumes", "details": "for tumor growth inhibition: single agent; for Average Tumor Volumes: nude/nude mice, 15 mg/kg QD", "protocol": "(§1) Immunocompromised nude/nude mice are inoculated in the right hind flank with cells harboring a KRas G12D mutation. When tumor volumes reach between 200-400 mm^3 in size, the mice are divided into four to five groups of 5 mice each. The first group is administered vehicle only. […] The fourth group is administered the single agent dose of the KRas G12D inhibitor using the twice daily for 2 sequential days followed by 5 days off schedule in combination with the single agent dose of Irinotecan. The treatment period varies from cell line to cell line but typically is between 15-22-days. Tumor volumes are measured using a caliper every two-three days and tumor volumes are calculated by the formula: […].\n(§2) 20 to 25 nude/nude mice per study were inoculated in the right hind limb with 5×10^6 LS180 cells, AsPC-1 cells, GP2D cells, or Panc 02.03 cells. When tumor volumes reached ˜200 mm3-400 mm3 (study day 0) 5 mice in each of the groups were administered i.p. vehicle only (10% captisol in 50 mM citrate buffer pH 5.0), 30 mg/kg of Kras G12D inhibitor MRTX1133 (10% captisol in 50 mM citrate buffer, pH 5.0) either on the twice daily schedule or the twice daily for 2 consecutive days followed by 5 days off schedule, 15 mg/kg once daily of the BYL719 (0.5% methylcellulos) PI3Ka inhibitor, or 30 mg/kg of Kras G12D inhibitor on either schedule and BYL719. Tumor volumes, measured at pre-specified days, for the five mice per group were averaged and are reported for LS180, AsPC-1, GP2D, and Panc 02.03 in Tables 1, 2, 3, and 4, respectively.\n30 nude/nude mice were inoculated with AsPC-1 cells in the hind right flank. When the tumors reached ˜300 mm^3 six treatment groups were established with 5 mice per group."}, "[2]": {"tested_on": "PANC0203 pancreatic cancer cell line", "experiment": "Panc 02.03 xenograft in nude/nude mice, average tumor volumes", "details": "15 mg/kg QD", "protocol": "as §1, §2\n20 nude/nude mice were inoculated with Panc 02.03 cells in the hind right flank. When the tumors reached ˜300 mm^3 four treatment groups were established with 5 mice per group."}, "[3]": {"tested_on": "GP2D colorectal cancer cell line", "experiment": "GP2D xenograft in nude/nude mice, average tumor volumes", "protocol": "as §1\nas §2, with “respectively. […]” for “respectively.”"}, "[4]": {"tested_on": "LS180 colon cancer cell line", "experiment": "LS180 xenograft in nude/nude mice, average tumor volumes", "details": "for Average Tumor Volumes: nude/nude mice, 15 mg/kg QD", "protocol": "as §1, §2\n25 nude/nude mice were inoculated with LS180 cells in the hind right flank. When the tumors reached ˜250 mm^3 five treatment groups were established with 5 mice per group."}},
  "data": [
    {"molecule": "Cc1nc(NC(=O)N2CCC[C@H]2C(N)=O)sc1-c1ccnc(C(C)(C)C(F)(F)F)c1", "note": "[BYL719, (2S)-N1-[4-Methyl-5-[2-(2,2,2-trifluoro-1,1-dimethylethyl)-4-pyridinyl]-2-thiazolyl]-1,2-pyrrolidinedicarboxamide]", "values": [
      {"measurement": "tumor growth inhibition", "setting": "[1]; 15 mg/kg once daily, Day 34", "value": 0, "unit": "%"},
      {"measurement": "Average Tumor Volumes", "setting": "[1]; Study Day 1", "value": 331.29, "unit": "mm^3"},
      {"measurement": "Average Tumor Volumes", "setting": "[1]; Study Day 6", "value": 429.172, "unit": "mm^3"},
      {"measurement": "Average Tumor Volumes", "setting": "[1]; Study Day 9", "value": 473.138, "unit": "mm^3"},
      {"measurement": "Average Tumor Volumes", "setting": "[1]; Study Day 13", "value": 531.394, "unit": "mm^3"},
      {"measurement": "Average Tumor Volumes", "setting": "[1]; Study Day 16", "value": 580.446, "unit": "mm^3"},
      {"measurement": "Average Tumor Volumes", "setting": "[1]; Study Day 20", "value": 688.564, "unit": "mm^3"},
      {"measurement": "Average Tumor Volumes", "setting": "[1]; Study Day 23", "value": 742.98, "unit": "mm^3"},
      {"measurement": "Average Tumor Volumes", "setting": "[1]; Study Day 27", "value": 918.424, "unit": "mm^3"},
      {"measurement": "Average Tumor Volumes", "setting": "[1]; Study Day 30", "value": 1283, "unit": "mm^3"},
      {"measurement": "Average Tumor Volumes", "setting": "[1]; Study Day 34", "value": 1622, "unit": "mm^3"},
      {"measurement": "Average Tumor Volumes", "setting": "[2]; Study Day 1", "value": 330.188, "unit": "mm^3"},
      {"measurement": "Average Tumor Volumes", "setting": "[2]; Study Day 4", "value": 341.414, "unit": "mm^3"},
      {"measurement": "Average Tumor Volumes", "setting": "[2]; Study Day 8", "value": 367.35, "unit": "mm^3"},
      {"measurement": "Average Tumor Volumes", "setting": "[2]; Study Day 11", "value": 487.664, "unit": "mm^3"},
      {"measurement": "Average Tumor Volumes", "setting": "[2]; Study Day 15", "value": 572.82, "unit": "mm^3"},
      {"measurement": "Average Tumor Volumes", "setting": "[2]; Study Day 18", "value": 680.306, "unit": "mm^3"},
      {"measurement": "Average Tumor Volumes", "setting": "[2]; Study Day 22", "value": 774.992, "unit": "mm^3"},
      {"measurement": "Average Tumor Volumes", "setting": "[3]; 15 mg/kg QD, Study Day 1", "value": 307.604, "unit": "mm^3"},
      {"measurement": "Average Tumor Volumes", "setting": "[3]; 15 mg/kg QD, Study Day 7", "value": 369.474, "unit": "mm^3"},
      {"measurement": "Average Tumor Volumes", "setting": "[3]; 15 mg/kg QD, Study Day 10", "value": 395.68, "unit": "mm^3"},
      {"measurement": "Average Tumor Volumes", "setting": "[3]; 15 mg/kg QD, Study Day 14", "value": 467.526, "unit": "mm^3"},
      {"measurement": "Average Tumor Volumes", "setting": "[3]; 15 mg/kg QD, Study Day 17", "value": 546.962, "unit": "mm^3"},
      {"measurement": "Average Tumor Volumes", "setting": "[3]; 15 mg/kg QD, Study Day 21", "value": 681.056, "unit": "mm^3"},
      {"measurement": "Average Tumor Volumes", "setting": "[3]; 15 mg/kg QD, Study Day 26", "value": 901.144, "unit": "mm^3"},
      {"measurement": "Average Tumor Volumes", "setting": "[3]; 15 mg/kg QD, Study Day 28", "value": 1053.732, "unit": "mm^3"},
      {"measurement": "Average Tumor Volumes", "setting": "[3]; 15 mg/kg QD, Study Day 31", "value": 1102.87, "unit": "mm^3"},
      {"measurement": "Average Tumor Volumes", "setting": "[3]; 15 mg/kg QD, Study Day 35", "value": 1202.89, "unit": "mm^3"},
      {"measurement": "tumor growth inhibition", "setting": "[4]; 15 mg/kg once daily, single agent, Day 15", "value": 44, "unit": "%"},
      {"measurement": "Average Tumor Volumes", "setting": "[4]; Study Day 1", "value": 273.184, "unit": "mm^3"},
      {"measurement": "Average Tumor Volumes", "setting": "[4]; Study Day 4", "value": 501.45, "unit": "mm^3"},
      {"measurement": "Average Tumor Volumes", "setting": "[4]; Study Day 8", "value": 799.338, "unit": "mm^3"},
      {"measurement": "Average Tumor Volumes", "setting": "[4]; Study Day 11", "value": 1016.09, "unit": "mm^3"},
      {"measurement": "Average Tumor Volumes", "setting": "[4]; Study Day 15", "value": 1225.468, "unit": "mm^3"}
    ]},
    {"molecule": "C#Cc1c(F)ccc2cc(O)cc(-c3ncc4c(N5C[C@H]6CC[C@@H](C5)N6)nc(OC[C@@]56CCCN5C[C@H](F)C6)nc4c3F)c12", "note": "[MRTX1133, 4-(4-((1R,5S)-3,8-diazabicyclo[3.2.1]octan-3-yl)-8-fluoro-2-(((2R,7aS)-2-fluorohexahydro-1H-pyrrolizin-7a-yl)methoxy)pyrido[4,3-d]pyrimidin-7-yl)-5-ethynyl-6-fluoronaphthalen-2-ol]", "values": [
      {"measurement": "tumor growth inhibition", "setting": "[1]; 30 mg/kg BID twice weekly, day 34", "value": 43, "unit": "%"},
      {"measurement": "Average Tumor Volumes", "setting": "[3]; 30 mg/kg BID Daily i.p., Study Day 1", "value": 300.778, "unit": "mm^3"},
      {"measurement": "Average Tumor Volumes", "setting": "[3]; 30 mg/kg BID Daily i.p., Study Day 7", "value": 263.132, "unit": "mm^3"},
      {"measurement": "Average Tumor Volumes", "setting": "[3]; 30 mg/kg BID Daily i.p., Study Day 10", "value": 237.628, "unit": "mm^3"},
      {"measurement": "Average Tumor Volumes", "setting": "[3]; 30 mg/kg BID Daily i.p., Study Day 14", "value": 221.728, "unit": "mm^3"},
      {"measurement": "Average Tumor Volumes", "setting": "[3]; 30 mg/kg BID Daily i.p., Study Day 17", "value": 221.788, "unit": "mm^3"},
      {"measurement": "Average Tumor Volumes", "setting": "[3]; 30 mg/kg BID Daily i.p., Study Day 21", "value": 242.56, "unit": "mm^3"},
      {"measurement": "Average Tumor Volumes", "setting": "[3]; 30 mg/kg BID Daily i.p., Study Day 26", "value": 254.57, "unit": "mm^3"},
      {"measurement": "Average Tumor Volumes", "setting": "[3]; 30 mg/kg BID Daily i.p., Study Day 28", "value": 307.03, "unit": "mm^3"},
      {"measurement": "Average Tumor Volumes", "setting": "[3]; 30 mg/kg BID Daily i.p., Study Day 31", "value": 333.20, "unit": "mm^3"},
      {"measurement": "Average Tumor Volumes", "setting": "[3]; 30 mg/kg BID Daily i.p., Study Day 35", "value": 358.75, "unit": "mm^3"}
    ]}
  ]
}
